Laboratory results taken from patent US20240358681A1, “METHODS OF USE OF PPAR AGONIST COMPOUNDS AND PHARMACEUTICAL COMPOSITIONS THEREOF” (Mitobridge, Inc., priority 2021, published 2024).
Entries after “also recorded” stand apart in the source; their conditions may differ.

Experiments:
KSS fibroblasts = experiment: Seahorse mitochondrial fatty acid oxidation; format: cell-based, human
Experimental: (§1) FAO was measured using a Seahorse XF96 (Seahorse Biosciences). MELAS m.3243A>G fibroblasts, KSS fibroblasts, and MERRF tRNA-Lys 8344 cybrids were treated with DMSO or Compound (I) 8 hours after seeding into flasks. 24 hours after initial treatment, media was changed to complete media with DMSO or Compound (I) with reduced glucose (1.1 mM for primary fibroblasts and 5.5 mM for cybrids) and 0.5 mM carnitine. After 48 hours after initial treatment, cells were plated into 96-well cell culture microplates at a density of 40,000 cells per well. FAO assay was initiated 8 hours after plating.
(§2) 200 μL of KHB was added to the blank wells and 200 μL KHB mixed with control BSA (final 0.074 mM) or BSA-palmitate (final 0.074 mM BSA, 500 μM palmitate was added to the appropriate wells. Stress test components compounds are added in the following sequential order; 1) Oligomycin, 2) FCCP, and 3) Rotenone and Antimycin A for final concentrations of 2.5 μM, 6 μM and 1 μM, respectively. Oxidation of palmitate was assessed using the same ratio as LHON/Leigh fibroblasts.

[1] = system: MELAS m.3243A>G fibroblasts; experiment: Seahorse mitochondrial fatty acid oxidation; format: cell-based, human
Experimental: as §1, §2

[2] = system: MERRF tRNA-Lys 8344 cybrids; experiment: Seahorse mitochondrial fatty acid oxidation; format: cell-based, human; conditions: MERRF cybrid cell line, FIG. 4B
Experimental: as §1, §2

PMM patient fibroblasts = experiment: Fatty acid OXPHOS in PMM patient fibroblasts (FIG. 4B, all lines); format: cell-based, human; conditions: 3, 9 and 30 nM
Experimental: LHON/Leigh cells were treated with DMSO or Compound (I) in complete media supplemented with 0.5 mM carnitine for 24 hours prior to assaying. Treated cells were trypsinized, collected in Krebs-Henseleit Buffer (KHB) and pelleted.
Palmitate-mediated OXPHOS was measured using an Oxygraph-2k (Oroboros Instruments). Cells (1×10^6) in KHB were loaded into each chamber with 250 μM BSA or BSA-conjugated palmitate. KHB was added to reach a final volume of 2 mL. Respiration was measured at 37° C. as previously described in Zhang, Z., et al., Primary respiratory chain disease causes tissue-specific dysregulation of the global transcriptome and nutrient-sensing signaling network. (1932-6203). Briefly, BSA and BSA-conjugated palmitate treated cells were analyzed simultaneously in two separate chambers. […]
Data were analyzed using DatLab6 software. […] Non-mitochondrial respiration was measured after addition of Rotenone and Antimycin A sequentially (ROX, residual oxygen consumption, background) and subtracted from maximal respiration values. […]
FAO was measured using a Seahorse XF96 (Seahorse Biosciences). […]

[3] = system: aged Diet-Induced Obese (DIO) C57BL/6NTac mice; experiment: Forced exhaustion running, activity and body composition in aged DIO mice; format: in vivo, mouse; conditions: 30 mg/kg
Experimental: (§3) All animal studies were performed in accordance with Charles River Laboratories animal welfare protocols. Male Diet-Induced Obese (DIO) C57BL/6NTac mice 28 weeks of age were fed a high fat diet. 20 mice were randomized based on bodyweight into two cohorts of 10 mice each. Five mice were assigned to each treatment group in each cohort (i) vehicle or (ii) Compound (I) at 30 mg/kg via (n=10 total animals per treatment). Groups were dosed orally by gavage, once daily for 45 days at the start of the dark cycle. Mice were acclimatized to the treadmill room for one hour on days of training or endurance runs. After an initial 5 min exploration period the treadmill belt moved at 5 m/min for 10 min with the motivation grid intensity set to 0.46 mA. Mice required a few visits to the grid to learn to walk/run on the moving belt and avoid the electric grid shock. After two acclimatization periods the mice learned to avoid the electric grid and stay on the moving belt, with fewer visits to the electric grid. The maximum speed for the endurance run was capped at 16.5 m/min based on speed acclimation runs, which represents the speed at which 25% of animals are running in the top ⅔ of the treadmill at a 5° slope. The mice were considered exhausted if they stayed on the electric grid with no limbs on the treadmill belt for 10 seconds.
Endurance was calculated as a Fatigue Index; this accounts for distance traveled, time on the treadmill, the number of breaks in running, and the length of those breaks. The cumulative number of stimulations for individual animals was plotted over time and the area under the curve (AUC) was calculated. AUC was divided by the distance individual animals completed during the course of the fatigue run to obtain the Fatigue Index. Voluntary activity is defined as the total number of X and Y axis laser beam breaks and rearing is defined as the total number of Z axis breaks per treatment group.

[4] = Tissue exposure in skeletal muscle (gastrocnemius) of aged DIO mice; format: in vivo, mouse; conditions: 30 mg/kg oral once daily, 5 weeks, FIG. 6A
Experimental: as §3, with “Groups were dosed orally by gavage, once daily for 45 days at the start of the dark cycle.” left out
Before and after the exhaustion run, blood samples were obtained via a tail vein nick. […]

[5] = 5 weeks, vs vehicle, FIG. 6D-6E

Cc1cnc(-c2ccc(C(F)(F)F)cc2)n1Cc1ccccc1OCCC[C@@H](C)CC(=O)O [Compound (I), (R)-3-Methyl-6-(2-((5-methyl-2-(4-(trifluoromethyl)phenyl)-1H-imidazol-1-yl)methyl)-phenoxy)hexanoic acid]
fatty acid-mediated OXPHOS, dose response (KSS fibroblasts; KSS patient fibroblasts, two biological replicates, FIG. 4B): trending dose response | increase in fatty acid mediated OXPHOS (KSS fibroblasts; KSS, 30 nM): thirty percent or greater | restoration to the fatty acid-mediated OXPHOS of healthy donor fibroblasts (KSS fibroblasts; KSS, 30 nM): near complete restoration | fatty acid-mediated OXPHOS, dose response ([1]; MELAS patient fibroblasts, two biological replicates, FIG. 4B): trending dose response | increase in fatty acid mediated OXPHOS ([1]; MELAS, 30 nM): thirty percent or greater | restoration to the fatty acid-mediated OXPHOS of healthy donor fibroblasts ([1]; MELAS, 30 nM): partial | fatty acid mediated OXPHOS response ([2]; 30 nM): less pronounced | fatty acid mediated OXPHOS, dose response [2]: dose-dependent trend | fatty acid OXPHOS (PMM patient fibroblasts): increased | rate of falls in the motivational grid ([3]; 5 weeks, FIG. 5F): decrease | run distance ([3]; 5 weeks, FIG. 5H): no change | Fatigue Index ([3]; 5 weeks, vs vehicle, FIG. 5I): less fatigued | rearing [3, 5]: trend towards increased | voluntary activity [3, 5]: trend towards increased; also recorded: No statistically significant differences | body weight ([3]; during the study, FIG. 6B): did not alter | body composition ([3]; during the study, FIG. 6C): did not alter; also recorded: No statistically significant differences | skeletal muscle exposure [4]: detectable and covered the mouse EC50
